Laboratory results as given in US20110082130A1 (LIGAND PHARMACEUTICALS, INC., priority 2006, published 2011).

Each molecule was assayed against T1, chimeric human H3 receptor (Homo sapiens, UniProt Q9Y5N1) (assay: Chimeric human H3 receptor GTP binding assay (agonist-stimulated GTP-gamma35S binding, Example 7)). Conditions: Table I; P2 membranes of Sf9 cells, 1 μM histamine as agonist, Ki from IC50 by Cheng-Prusoff.
T1 construct: made in house; host or cells: Sf9 insect cells (baculovirus); P2 membrane preparation
T1 sequence (Q9Y5N1 with tags, fused parts or gaps): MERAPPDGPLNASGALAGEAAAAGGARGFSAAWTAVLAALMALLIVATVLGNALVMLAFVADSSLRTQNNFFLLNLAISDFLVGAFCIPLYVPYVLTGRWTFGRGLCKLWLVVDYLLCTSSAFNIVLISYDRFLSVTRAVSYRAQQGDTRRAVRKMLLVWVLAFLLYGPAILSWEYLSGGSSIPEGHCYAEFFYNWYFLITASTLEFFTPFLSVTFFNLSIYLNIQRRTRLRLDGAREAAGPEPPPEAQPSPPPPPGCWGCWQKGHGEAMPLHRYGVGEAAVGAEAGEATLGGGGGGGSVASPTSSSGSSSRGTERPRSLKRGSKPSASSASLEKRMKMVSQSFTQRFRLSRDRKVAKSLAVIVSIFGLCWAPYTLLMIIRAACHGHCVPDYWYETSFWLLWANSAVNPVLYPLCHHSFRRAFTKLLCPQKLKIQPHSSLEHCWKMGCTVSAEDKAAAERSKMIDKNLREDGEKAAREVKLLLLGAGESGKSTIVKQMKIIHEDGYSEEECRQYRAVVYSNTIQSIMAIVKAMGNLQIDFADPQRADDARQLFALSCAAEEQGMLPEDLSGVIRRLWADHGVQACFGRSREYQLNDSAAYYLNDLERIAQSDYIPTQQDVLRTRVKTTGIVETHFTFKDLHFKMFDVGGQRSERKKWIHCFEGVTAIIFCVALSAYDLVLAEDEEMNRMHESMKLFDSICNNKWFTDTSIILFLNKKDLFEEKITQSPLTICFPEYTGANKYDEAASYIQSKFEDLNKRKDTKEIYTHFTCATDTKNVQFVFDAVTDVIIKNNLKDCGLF
Type: biochemical
Text: This Example illustrates a representative assay for evaluating agonist-stimulated GTP-gamma^35S binding (“GTP binding”) activity. […] This agonist-stimulated GTP binding activity can also be used to detect partial agonism mediated by antagonist compounds. A compound analyzed in this assay is referred to herein as a “test compound.”
Four independent baculoviral stocks (one directing the expression of the chimeric human H3 receptor and three directing the expression of each of the three subunits of a heterotrimeric G-protein) are used to infect a culture of Sf9 cells as described above. P2 membranes are prepared as described above, and agonist-stimulated GTP binding on the P2 membranes is assessed using histamine (Sigma Chemical Co., St. Louis, Mo.) as agonist in order to ascertain that the receptor/G-protein-alpha-beta-gamma combination(s) yield a functional response as measured by GTP binding. P2 membranes are resuspended by Dounce homogenization (tight pestle) in GTP binding assay buffer (50 mM Tris pH 7.4, 120 mM NaCl, 5 mM MgCl2, 2 mM EGTA, 1 mg/ml BSA, 0.2 mg/ml bacitracin, 0.02 mg/ml aprotinin, 0.01 mg/ml saponin, 10 μM GDP) and added to assay tubes at a concentration of 35 μg protein/reaction tube. After adding increasing doses of histamine at concentrations ranging from 10^−12 M to 10^−5 M, reactions are initiated by the addition of […] GTP-gamma^35S (PERKIN ELMER; Boston, Mass.) with a final assay volume of 0.20 ml. In competition experiments, non-radiolabeled test compounds are added to separate reactions at concentrations ranging from 10^−10 M to 10^−6 M along with 1 μM histamine to yield a final volume of 0.20 ml.
Neutral antagonists are antagonists that are substantially free of inherent agonist activity, and include those test compounds that reduce the histamine-stimulated GTP binding activity towards, but not below, baseline levels. In contrast, in the absence of added histamine, inverse agonists reduce the GTP binding activity of the receptor-containing membranes below baseline.
After a 60-min incubation at room temperature, reactions are terminated by vacuum filtration over WHATMAN GF/C filters (pre-soaked in wash buffer, 0.1% BSA) followed by washing with ice-cold wash buffer (50 mM Tris pH 7.4, 120 mM NaCl). The amount of receptor-bound (and thereby membrane-bound) GTP-gamma^35S is determined by measuring the filter-bound radioactivity, preferably by liquid scintillation spectrometry of the washed filters. Non-specific binding is determined in parallel assays including 10 μM unlabeled GTP-gammaS and typically represents less than 5 percent of total binding. Data is expressed as percent above basal (baseline). The results of GTP binding experiments are analyzed using SIGMAPLOT software (SPSS Inc., Chicago, Ill.). IC50 values are calculated by non-linear regression analysis of dose-response curves using Kaleidograph (Synergy Software, Reading, Pa.).
Alternatively the data is analyzed as follows. First, the average bound radioactivity from negative control wells (no agonist) is subtracted from the bound radioactivity detected for each of the other experimental wells. Second, average bound radioactivity is calculated for the positive control wells (agonist wells). Then, percent inhibition for each compound tested is calculated using the equation:
Calculated IC50 values are converted to K1 values by the Cheng-Prusoff correction (Cheng and Prusoff (1973) Biochem. Pharmacol. 22(23):3099-3108). Accordingly, the following equation: Ki=IC50/(1+[L]/EC50) is used, where [L] is the histamine concentration in the GTP binding assay, and EC50 is the concentration of histamine producing a 50% response, as determined by a dose-response analysis using concentrations of histamine ranging from 10^−10 M to 10^−6M. […]

Ki, < 1000 nM:
CC(C)N1CCN(C(=O)CN2CCc3ccccc3C2c2ccccc2)CC1 (stereo not drawn) [Compound 52, 2-[2-(4-isopropylpiperazin-1-yl)-2-oxoethyl]-1-phenyl-1,2,3,4-tetrahydroisoquinoline]

Same assay, conditions: Table II "Ki", symbol *; assay of Example 7

Ki, < 1000 nM:
O=C(CN1CCc2nc(NCC3CCCCC3)ccc2C1)N1CCN(C2CCC2)CC1 [Compound 659, 6-[2-(4-cyclobutylpiperazin-1-yl)-2-oxoethyl]-N-(cyclohexylmethyl)-5,6,7,8-tetrahydro-1,6-naphthyridin-2-amine]
O=C(CN1CCc2cc(-c3ccc(C(F)(F)F)nc3)ccc2C1)N1CCN(C2CCC2)CC1 [Compound 648, 2-[2-(4-cyclobutylpiperazin-1-yl)-2-oxoethyl]-6-[6-(trifluoromethyl)pyridin-3-yl]-1,2,3,4-tetrahydroisoquinoline]

Same assay, conditions: Table II; "*" = Ki in assay of Example 7 less than 1 micromolar

Ki, < 1000 nM:
O=C(CN1CCc2cc(-n3cncn3)ccc2C1)N1CCN(C2CCC2)CC1 [Compound 207, 2-[2-(4-cyclobutylpiperazin-1-yl)-2-oxoethyl]-6-(1H-1,2,4-triazol-1-yl)-1,2,3,4-tetrahydroisoquinoline]
CCC1CCC[C@H]2CN(C(=O)CN3CCc4cc(Br)ccc4C3)CCN12 (stereo in doubt) [Compound 162, 2-[(6-bromo-3,4-dihydroisoquinolin-2(1H)-yl)acetyl]-6-ethyloctahydro-2H-pyrido[1,2-a]pyrazine]
O=C(CN1CCc2nc(-n3cccn3)ncc2C1)N1CCN(C2CCC2)CC1 [Compound 275, 6-[2-(4-cyclobutylpiperazin-1-yl)-2-oxoethyl]-2-(1H-pyrazol-1-yl)-5,6,7,8-tetrahydropyrido[4,3-d]pyrimidine]
CC(=O)c1ccc(-n2cc3c(n2)CCN(CC(=O)N2CCN(C4CCC4)CC2)C3)cc1 [Compound 94, 1-(4-{5-[2-(4-cyclobutylpiperazin-1-yl)-2-oxoethyl]-4,5,6,7-tetrahydro-2H-pyrazolo[4,3-c]pyridin-2-yl}phenyl)ethanone]
Cn1cc(-c2ccc3c(c2)CCN(CC(=O)N2CCN(C4CCC4)CC2)C3)cnc1=O [Compound 266, 5-{2-[2-(4-cyclobutylpiperazin-1-yl)-2-oxoethyl]-1,2,3,4-tetrahydroisoquinolin-6-yl}-1-methylpyrimidin-2(1H)-one]
O=C(CN1CCc2cc(OCc3ccccc3)ccc2C1)N1CCN(C2CCC2)CC1 [Compound 194, 6-(benzyloxy)-2-[2-(4-cyclobutylpiperazin-1-yl)-2-oxoethyl]-1,2,3,4-tetrahydroisoquinoline]
N#Cc1ccc(-n2ncc3c2CCN(CC(=O)N2CCN(C4CCC4)CC2)C3)cc1 [Compound 93, 4-{5-[2-(4-cyclobutylpiperazin-1-yl)-2-oxoethyl]-4,5,6,7-tetrahydro-1H-pyrazolo[4,3-c]pyridin-1-yl}benzonitrile]
CC1CN(C(=O)CN2CCc3nc(-c4cncnc4)sc3C2)CCN1C1CCC1 (stereo not drawn) [Compound 111, 5-[2-(4-cyclobutyl-3-methylpiperazin-1-yl)-2-oxoethyl]-2-pyrimidin-5-yl-4,5,6,7-tetrahydro[1,3] thiazolo [5,4-c]pyridine]
CS(=O)(=O)c1cccc(-c2nc3c(s2)CN(CC(=O)N2CCN(C4CCC4)CC2)CC3)c1 [Compound 99, 5-[2-(4-cyclobutylpiperazin-1-yl)-2-oxoethyl]-2-[3-(methylsulfonyl)phenyl]-4,5,6,7-tetrahydro[1,3]thiazolo [5,4-c]pyridine]
O=C(CN1CCc2nc(N3CCC(O)C3)ccc2C1)N1CCN(C2CCC2)CC1 (stereo not drawn) [Compound 226, 1-{6-[2-(4-cyclobutylpiperazin-1-yl)-2-oxoethyl]-5,6,7,8-tetrahydro-1,6-naphthyridin-2-yl}pyrrolidin-3-ol]
CCn1cc(-c2ccc3c(c2)CCN(CC(=O)N2CCN(C4CCC4)CC2)C3)ccc1=O [Compound 280, 5-{2-[2-(4-cyclobutylpiperazin-1-yl)-2-oxoethyl]-1,2,3,4-tetrahydroisoquinolin-6-yl}-1-ethylpyridin-2(1H)-one]
O=C(CN1CCc2cc(N3CCOC3=O)ccc2C1)N1CCN(C2CCC2)CC1 [Compound 210, 3-{2-[2-(4-cyclobutylpiperazin-1-yl)-2-oxoethyl]-1,2,3,4-tetrahydroisoquinolin-6-yl}-1,3-oxazolidin-2-one]
CC(=O)c1ccc(-n2cc3c(n2)CCN(CC(=O)N2CCN(C4CCC4)CC2)C3)nc1 [Compound 96, 1-(6-{5-[2-(4-cyclobutylpiperazin-1-yl)-2-oxoethyl]-4,5,6,7-tetrahydro-2H-pyrazolo[4,3-c]pyridin-2-yl}pyridin-3-yl)ethanone]
O=C(CN1CCc2cc(OC3CCCC3)ccc2C1)N1CCN(C2CCC2)CC1 [Compound 196, 2-[2-(4-cyclobutylpiperazin-1-yl)-2-oxoethyl]-6-(cyclopentyloxy)-1,2,3,4-tetrahydroisoquinoline]
O=C(CN1CCc2nn(-c3cccnn3)cc2C1)N1CCN(C2CCC2)CC1 [Compound 255, 5-[2-(4-cyclobutylpiperazin-1-yl)-2-oxoethyl]-2-pyridazin-3-yl-4,5,6,7-tetrahydro-2H-pyrazolo[4,3-c]pyridine]

Same assay, conditions: assay of Example 7; "*" in Ki of Table II

Ki, < 1000 nM:
CCC(C)N1CCN(C(=O)CN2CCc3cc(-c4ccc(S(C)(=O)=O)cc4)ccc3C2)CC1 (stereo not drawn) [Compound 396, 2-[2-(4-sec-butylpiperazin-1-yl)-2-oxoethyl]-6-[4-(methylsulfonyl)phenyl]-1,2,3,4-tetrahydroisoquinoline]
COc1cc(-c2nc3c(s2)CN(CC(=O)N2CCN(C4CCC4)CC2)CC3)cc(OC)c1OC [Compound 326, 5-[2-(4-cyclobutylpiperazin-1-yl)-2-oxoethyl]-2-(3,4,5-trimethoxyphenyl)-4,5,6,7-tetrahydro[1,3]thiazolo [5,4-c]pyridine]
CCC(C)N1CCN(C(=O)CN2CCc3cc(-c4ccc(OC)nc4)ccc3C2)CC1 (stereo not drawn) [Compound 383, 2-[2-(4-sec-butylpiperazin-1-yl)-2-oxoethyl]-6-(6-methoxypyridin-3-yl)-1,2,3,4-tetrahydroisoquinoline]
O=C(CN1CCc2cc(-c3ccc4c(c3)OCCO4)ccc2C1)N1CCN(C2CCC2)CC1 [Compound 380, 2-[2-(4-cyclobutylpiperazin-1-yl)-2-oxoethyl]-6-(2,3-dihydro-1,4-benzodioxin-6-yl)-1,2,3,4-tetrahydroisoquinoline]
Cc1ccc(F)c(-c2nc3c(s2)CN(CC(=O)N2CCN(C4CCC4)CC2)CC3)c1 [Compound 302, 5-[2-(4-cyclobutylpiperazin-1-yl)-2-oxoethyl]-2-(2-fluoro-5-methylphenyl)-4,5,6,7-tetrahydro[1,3]thiazolo [5,4-c]pyridine]
COc1cccc(-c2ccc3c(c2)CCN(CC(=O)N2CCN(C4CCCC4)CC2)C3)c1 [Compound 476, 2-[2-(4-cyclopentylpiperazin-1-yl)-2-oxoethyl]-6-(3-methoxyphenyl)-1,2,3,4-tetrahydroisoquinoline]
